Measured values reported in patent US20050208496A1, “Methods of testing for bronchial asthma or chronic obstructive pulmonary disease” (Genox Research, Inc., priority 2002, published 2005).
Several values for one entry are separate records, joined by “and”; a condition that tells them apart may be missing. Equal values may be shown once.

Tested on: mouse counterpart genes
Assay: Mouse GeneChip (MG-U74A to MG-U74C) analysis of lung and trachea of the OVA antigen-exposed bronchial hypersensitivity model, S-Sal group versus S-OVA group
Format: in vivo
[1] = S-Sal vs S-OVA group, 2nd, P/A: P
[2] = S-Sal vs S-OVA group, 3rd, P/A: A
[3] = S-Sal vs S-OVA group, 3rd, P/A: P

ovalbumin [OVA antigen, ovalbumin antigen used for sensitization and inhalation to induce bronchial hypersensitivity in mice]
Fold Change, cathepsin C (mouse Probe ID 101019_at) [1]: 1.1
Fold Change, dual specificity phosphatase 14 (mouse Probe ID 162702_at) [1]: 1.1
Fold Change, expressed sequence AI839647 (mouse Probe ID 110839_at) [1]: 0.833
Fold Change, integrin-associated protein (mouse Probe ID 103611_at) [1]: 1
Fold Change, neutrophil cytosolic factor 2 (mouse Probe ID 102326_at) [1]: 2.2
Fold Change, reticulocalbin 2 (mouse Probe ID 93281_at) [1]: 0.833
Fold Change, ribosomal protein S16 (mouse Probe ID 97647_at) [1]: 1
Fold Change, serine (or cysteine) proteinase inhibitor, clade B (ovalbumin), member 2 (mouse Probe ID 92978_s_at) [1]: 0.455
Fold Change, signal transducer and activator of transcription 1 (mouse Probe ID 101465_at) [1]: 1.6
Fold Change, signal transducer and activator of transcription 1 (mouse Probe ID 114635_at) [1]: 1.9
Fold Change, zinc finger protein 263 (mouse Probe ID 109154_at) [1]: 0.833
Fold Change, DNA-damage inducible transcript 3 (mouse Probe ID 101429_at) [2]: 0.625
Fold Change, RAS guanyl releasing protein 1 (mouse Probe ID 98307_at) [2]: 1.3
Fold Change, RAS guanyl releasing protein 1 (mouse Probe ID 167498_i_at) [2]: 2.4
Fold Change, RIKEN cDNA A2301D9K23 gene (mouse Probe ID 163453_at) [2]: 1.4
Fold Change, acid phosphatase 5, tartrate resistant (mouse Probe ID 162543_r_at) [2]: 8.7
Fold Change, cathepsin C (mouse Probe ID 161251_f_at) [2]: 1.2
Fold Change, dual specificity phosphatase 14 (mouse Probe ID 165144_r_at) [2]: 1.1
Fold Change, dual specificity phosphatase 14 (mouse Probe ID 171285_at) [2]: 2.3
Fold Change, keratin complex 1, acidic, gene 16 (mouse Probe ID 103589_at) [2]: 1.1
Fold Change, keratin complex 1, acidic, gene 16 (mouse Probe ID 164428_i_at) [2]: 0.625
Fold Change, nuclear factor, interleukin 3, regulated (mouse Probe ID 164758_i_at) [2]: 1.3
Fold Change, ribosomal protein S16 (mouse Probe ID 169860_r_at) [2]: 1.1
Fold Change, serine (or cysteine) proteinase inhibitor, clade B (ovalbumin), member 2 (mouse Probe ID 92978_s_at) [2]: 1.7
Fold Change, serine (or cysteine) proteinase inhibitor, clade B (ovalbumin), member 2 (mouse Probe ID 137166_r_at) [2]: 1.2
Fold Change, ubiquitin D (mouse Probe ID 92715_at) [2]: 0.625
Fold Change, ubiquitin D (mouse Probe ID 168938_r_at) [2]: 1.4
Fold Change, ubiquitin D (mouse Probe ID 169362_f_at) [2]: 0.667
Fold Change, DEAD (aspartate-glutamate-alanine-aspartate) box polypeptide 5 (mouse Probe ID 93493_at) [3]: 1.1
Fold Change, DEAD (aspartate-glutamate-alanine-aspartate) box polypeptide 5 (mouse Probe ID 113899_at) [3]: 1.4
Fold Change, RIKEN cDNA 4933419D20 gene (mouse Probe ID 97442_at) [3]: 0.833
Fold Change, RIKEN cDNA 4933419D20 gene (mouse Probe ID 112237_at) [3]: 1
Fold Change, acid phosphatase 5, tartrate resistant (mouse Probe ID 98859_at) [3]: 1.7
Fold Change, cathepsin C (mouse Probe ID 101019_at) [3]: 1
Fold Change, cytokine inducible SH2-containing protein 1 (mouse Probe ID 92832_at) [3]: 1.5
Fold Change, dual specificity phosphatase 14 (mouse Probe ID 162702_at) [3]: 1
Fold Change, expressed sequence AI463430 (mouse Probe ID 112883_at) [3]: 1.5
Fold Change, fatty acid binding protein 4, adipocyte (mouse Probe ID 100567_at) [3]: 1.1
Fold Change, integrin-associated protein (mouse Probe ID 103611_at) [3]: 1
Fold Change, neutrophil cytosolic factor 2 (mouse Probe ID 102326_at) [3]: 1.2
Fold Change, ribosomal protein S16 (mouse Probe ID 97647_at) [3]: 1
Fold Change, signal transducer and activator of transcription 1 (mouse Probe ID 101465_at) [3]: 1
Fold Change, signal transducer and activator of transcription 1 (mouse Probe ID 114635_at) [3]: 1.1
Fold Change, ubiquitin fusion degradation 1 like (mouse Probe ID 93303_at) [3]: 1.3
Fold Change, zinc finger protein 263 (mouse Probe ID 109154_at) [3]: 1.3
Fold Change, A kinase (PRKA) anchor protein 10 (mouse probe 163162_at) (mouse, in vivo): 0.769
Fold Change, DNA segment. Chr 16. ERATO Doi 269, expressed (mouse probe 97821_at) (mouse, in vivo): 0.909
Fold Change, DNA segment. Chr 16. ERATO Doi 269, expressed (mouse probe 97822_at) (mouse, in vivo): 0.909
Fold Change, DnaJ (Hsp40) homolog, subfamily A, member 1 (mouse Probe ID 97261_at) (mouse, in vivo): 0.909
Fold Change, ESTs AI844322 (mouse Probe ID 110469_at) (mouse, in vivo): 0.909 and 0.769
Fold Change, MP and activin membrane-bound inhibitor, homolog (Xanopus laevis) (mouse probe 162531_at) (mouse, in vivo): 0.769
Fold Change, RIKEN cDNA 6330404C01 gene (mouse Probe ID 166590_at) (mouse, in vivo): 0.769
Fold Change, RIKEN cDNA A2301D9K23 gene (mouse Probe ID 166475_r_at) (mouse, in vivo): 0.714
Fold Change, SAM domain and HD domain, 1 (mouse Probe ID 103080_at) (mouse, in vivo): 0.909
Fold Change, a disintegrin and metalloprotease domain 8 (mouse probe 103024_at) (mouse, in vivo): 0.769
Fold Change, a disintegrin and metalloprotease domain 28 (mouse probe 101723_r_at) (mouse, in vivo): 0.714 and 0.769
Fold Change, acid phosphatase 5, tartrate resistant (mouse Probe ID 98859_at) (mouse, in vivo): 0.769
Fold Change, cadherin 6 (mouse Probe ID 101730_at) (mouse, in vivo): 0.714
Fold Change, cathepsin C (mouse Probe ID 101020_at) (mouse, in vivo): 0.909
Fold Change, cholesterol 25-hydroxylase (mouse probe 133666_at) (mouse, in vivo): 0.909 and 0.769
Fold Change, claudin 5 (mouse probe 104516_at) (mouse, in vivo): 0.769
Fold Change, decay accelerating factor 1 (mouse probe 164905_r_at) (mouse, in vivo): 0.769
Fold Change, dipeptidylpeptidase 4 (mouse Probe ID 92634_at) (mouse, in vivo): 0.714
Fold Change, dual specificity phosphatase 14 (mouse Probe ID 171285_at) (mouse, in vivo): 0.909
Fold Change, expressed sequence AI463430 (mouse Probe ID 112883_at) (mouse, in vivo): 0.909
Fold Change, expressed sequence AI839647 (mouse Probe ID 110839_at) (mouse, in vivo): 0.909
Fold Change, fatty acid binding protein 4, adipocyte (mouse Probe ID 100567_at) (mouse, in vivo): 0.714
Fold Change, fetuin beta (mouse Probe ID 108524_at) (mouse, in vivo): 0.714
Fold Change, fructose bisphosphatase 1 (mouse Probe ID 96918_at) (mouse, in vivo): 0.769
Fold Change, growth arrest and DNA-damage-inducible 45 gamma (mouse Probe ID 109336_at) (mouse, in vivo): 0.909
Fold Change, hydroxysteroid (17-beta) dehydrogenase 2 (mouse Probe ID 101891_at) (mouse, in vivo): 0.909
Fold Change, hydroxysteroid (17-beta) dehydrogenase 2 (mouse Probe ID 166141_i_at) (mouse, in vivo): 0.714
Fold Change, hydroxysteroid (17-beta) dehydrogenase 2 (mouse Probe ID 169670_at) (mouse, in vivo): 0.769 and 0.909
Fold Change, intercellular adhesion molecule (mouse Probe ID 96752_at) (mouse, in vivo): 0.714
Fold Change, interferon gamma inducible protein 30 (mouse probe 164423_at) (mouse, in vivo): 0.714
Fold Change, interleukin 1 receptor-like 1 (mouse probe 98501_at) (mouse, in vivo): 0.769
Fold Change, low density lipoprotein receptor-related protein associated protein 1 (mouse probe 100086_at) (mouse, in vivo): 0.714
Fold Change, low density lipoprotein receptor-related protein associated protein 1 (mouse probe 161988_f_at) (mouse, in vivo): 0.714
Fold Change, matrix metalloproteinase 7 (mouse probe 162318_r_at) (mouse, in vivo): 0.769
Fold Change, membrane-associated protein 17 (mouse probe 96935_at) (mouse, in vivo): 0.909
Fold Change, neurotrophic tyrosine kinase, receptor type 1 (mouse probe 110116_at) (mouse, in vivo): 0.909
Fold Change, nitric oxide synthase 2, inducible, macrophage (mouse Probe ID 104420_at) (mouse, in vivo): 0.714
Fold Change, nuclear factor, interleukin 3, regulated (mouse Probe ID 164758_i_at) (mouse, in vivo): 0.714
Fold Change, osteoblast specific factor 2 (fasciclin I-like) (mouse Probe ID 92593_at) (mouse, in vivo): 0.909
Fold Change, phosphotidylinositol transfer protein, beta (mouse probe 102696_s_at) (mouse, in vivo): 0.714
Fold Change, polycystic kidney disease 2 (mouse probe 100951_at) (mouse, in vivo): 0.769
Fold Change, procollagen lysine, 2-oxoglutarate 5-dioxygenase 2 (mouse Probe ID 114376_at) (mouse, in vivo): 0.909
Fold Change, reticulocalbin 2 (mouse Probe ID 93281_at) (mouse, in vivo): 0.909
Fold Change, serine (or cysteine) proteinase inhibitor, clade B (ovalbumin), member 6 (mouse Probe ID 96060_at) (mouse, in vivo): 0.714
Fold Change, sialyltransferase 1 (beta-galactoside alpha-2,6-sialyltransferase) (mouse Probe ID 167200_r_at) (mouse, in vivo): 0.769 and 0.909
Fold Change, thioredoxin reductase 1 (mouse Probe ID 99985_at) (mouse, in vivo): 0.909
Fold Change, thioredoxin reductase 1 (mouse Probe ID 161284_r_at) (mouse, in vivo): 0.909 and 0.769
Fold Change, transforming growth factor, beta 2 (mouse Probe ID 93300_at) (mouse, in vivo): 0.769
Fold Change, transmembrane 4 superfamily member 8 (mouse Probe ID 97912_at) (mouse, in vivo): 0.769
Fold Change, ubiquitin D (mouse Probe ID 92715_at) (mouse, in vivo): 0.714
Fold Change, zinc finger protein 263 (mouse Probe ID 109154_at) (mouse, in vivo): 0.769
